Experimental data as given in ChEMBL document CHEMBL1201862, “PubChem BioAssay data set” (2004).
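Following 48 hours of exposure in 96-well plates, responses at five concentrations were used to interpolate endpoints linearly. At the GI50, growth is halved.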 Active and inactive are the calls of the source. Rule as the data show it: active = GI50 up to about 1.1 µM and inactive = higher.

Tests used:
Experiment in all cases: growth of human tumour cells (NCI), 48 h
EKVX = test system: EKVX
HCC 2998 = test system: HCC 2998
HCT-15 = test system: HCT-15
HL-60 = test system: HL-60
HOP-62 = test system: HOP-62
HOP-92 = test system: HOP-92
IGROV-1 = test system: IGROV-1
LOX IMVI = test system: LOX IMVI
M14 = test system: M14
MDA-MB-435 = test system: MDA-MB-435
NCI-H226 = test system: NCI-H226
NCI-H23 = test system: NCI-H23
NCI/ADR-RES = test system: NCI/ADR-RES
OVCAR-4 = test system: OVCAR-4
OVCAR-5 = test system: OVCAR-5
OVCAR-8 = test system: OVCAR-8
SF-268 = test system: SF-268
SK-MEL-2 = test system: SK-MEL-2
SNB-19 = test system: SNB-19
TK-10 = test system: TK-10

SMILES | GI50 (EKVX) | GI50 (HCC 2998) | GI50 (HCT-15) | GI50 (HL-60) | GI50 (HOP-62) | GI50 (HOP-92) | GI50 (IGROV-1) | GI50 (LOX IMVI) | GI50 (M14) | GI50 (MDA-MB-435) | GI50 (NCI-H226) | GI50 (NCI-H23) | GI50 (NCI/ADR-RES) | GI50 (OVCAR-4) | GI50 (OVCAR-5) | GI50 (OVCAR-8) | GI50 (SF-268) | GI50 (SK-MEL-2) | GI50 (SNB-19) | GI50 (TK-10)
N#CC1=C(N)N(/N=C/c2ccco2)C(c2ccco2)C1(C#N)C#N (stereo not given) | 19.5 µM (inactive) | 19.4 µM (inactive) | 15.3 µM | 3.35 µM (inactive) | 23.2 µM (inactive) | 16.6 µM (inactive) | 14.6 µM (inactive) | 14.2 µM (inactive) | 20 µM (inactive) | 21.3 µM (inactive) | 18.6 µM (inactive) | 19.6 µM (inactive) | 25.1 µM (inactive) | 15.4 µM (inactive) | 20.3 µM (inactive) | 19.7 µM (inactive) | 24.6 µM (inactive) | 24.1 µM (inactive) | 20.4 µM (inactive) | 17.4 µM (inactive)
Oc1cc(-c2ccccc2Cl)nc2cc3c(cc12)OCO3 | 0.155 µM (active) | 0.144 µM (active) | 0.0371 µM | 0.0207 µM (active) | 0.132 µM (active) | 0.102 µM (active) | 0.173 µM (active) | 0.0541 µM (active) | 0.11 µM (active) | 0.0146 µM (active) | 0.13 µM (active) | 0.122 µM (active) | 0.0575 µM (active) | 2.76 µM (inactive) | 1.09 µM (active) | 0.198 µM (active) | 1.64 µM (inactive) | 0.0719 µM (active) | 0.144 µM (active) | 0.731 µM (active)
